# Measured values taken from patent US20210069275A1, “TRADITIONAL CHINESE MEDICINE COMPOSITION FOR IMPROVING BONE HEALTH AND PREPARATION AND USES THEREOF” (Chenland Nutritionals Inc., priority 2020, published 2021).
# Marks after values point to notes of the source that are not given here.
# Columns and labels:
# Type in all cases: in vivo, rat
# osteoporosis model rats [1] = experiment: Bone metabolic biochemical indicators (BGP, BALP, PICP, NTX) by ELISA in osteoporosis model rats; conditions: bilateral ovariectomy female SD rats, intragastric once a day, 8 weeks, serum, 10 mg/kg
# Method: (§1) Samples: the traditional Chinese medicine (TCM) composition prepared in Example 1, a positive drug (Estradiol Valerate) and a competing drug (Caltrate).
# (§2) Female SD rats were randomly divided into sham operation group, model group, positive control group (estradiol valerate), competing drug group (Caltrate), high dose TCM composition (prepared in Example 1) group and low dose TC′M composition (prepared in Example 1) group, and 8 in each group.
# (§3) Female SD rats were treated by bilateral ovariectomy to establish osteoporosis model rats.
# (§4) The osteoporosis model rats were subjected to intragastric administration once a day and the administration cycle lasted for 8 weeks.
# (§5) After 8 weeks, the rats were sacrificed, and blood was collected from the abdominal aorta and subjected to standing for 1 hour. Then the blood sample was centrifuged to collect serum, which was detected for the bone metabolic biochemical indicators, including bone glaprotein (BGP), bone specific alkaline phosphatase (BALP), carboxyterminal propeptide of type I procollagen (PICP) and N-telopeptides of type I collagen (NTX); estrogen indicators, including serum estradiol E2 and follicle stimulating hormone (FSH); and blood biochemical indexes, including serum phosphorus and serum calcium. Moreover, the complete bilateral femurs were collected, on which the muscle tissues were, completely removed. The left femur was used for femoral mechanical testing, and the right femur was tested for related parameters such as bone density. The above experimental data was used to evaluate the efficacy of the TCM composition of the disclosure.
# (§6) The dosage of the TCM composition was determined based on the recommended crude drug dosage in the pharmacopoeia, and 1 g of extract was obtained after the extraction.
# (§7) Positive control group: 0.1 g/day for human.
# (§8) Competing drug group (Caltrate): one tablet (1 g)/day and 600 mg of calcium/tablet.
# (§9) High dose TCM composition group: 1 g/day for human; low dose TCM composition group: 0.5 g/day for human.
# (§10) The dosage for rats was calculated as follows: • dosage for rat (daily dose for human/60)*6;
# osteoporosis model rats [2] = experiment: Bone density parameters of right femur in osteoporosis model rats; conditions: bilateral ovariectomy female SD rats, intragastric once a day, 8 weeks, femoral metaphysis, 10 mg/kg
# Method: as §1, §2, §3, §4, §5, §6, §7, §8, §9, §10
# osteoporosis model rats [3] = experiment: Serum biochemical indexes (phosphorus, calcium) in osteoporosis model rats
# Method: as §1, §2, §3, §4, §5, §6, §7, §8, §9, §10
# osteoporosis model rats [4] = experiment: Serum estrogen indicators (E2, FSH) by ELISA in osteoporosis model rats; conditions: bilateral ovariectomy female SD rats, intragastric once a day, 8 weeks, 10 mg/kg
# Method: as §1, §2, §3, §4
# (§11) After 8 weeks, the rats were sacrificed, and blood was collected from the abdominal aorta and subjected to standing for 1 hour. Then the blood sample was centrifuged to collect serum, which was detected for the bone metabolic biochemical indicators, including bone glaprotein (BGP), bone specific alkaline phosphatase (BALP), carboxyterminal propeptide of type I procollagen (PICP) and N-telopeptides of type I collagen (NTX); estrogen indicators, including serum estradiol E2 and follicle stimulating hormone (FSH); and blood biochemical indexes, including serum phosphorus and serum calcium. […]
# as §10
# osteoporosis model rats [5] = experiment: Femoral mechanical testing (left femur) in osteoporosis model rats; conditions: bilateral ovariectomy female SD rats, intragastric once a day, 8 weeks, 10 mg/kg
# Method: as §1, §2, §3, §4, §11, §10
# [6] = bilateral ovariectomy female SD rats, intragastric once a day, 8 weeks, 10 mg/kg
compound,measurement,setting,value
"CCCCC(=O)O[C@H]1CC[C@H]2[C@@H]3CCc4cc(O)ccc4[C@H]3CC[C@]12C [Positive control, Estradiol Valerate]",BALP (bone specific alkaline phosphatase),osteoporosis model rats [1],764.2 ± 123.81 pg/mL
same,BGP (bone glaprotein),osteoporosis model rats [1],9.93 ± 2.23 ng/mL
same,NTX (N-telopeptides of type I collagen),osteoporosis model rats [1],26.92 ± 5.68 ng/mL
same,PICP (carboxyterminal propeptide of type I procollagen),osteoporosis model rats [1],739.33 ± 175.34 ng/mL
same,BMD (bone mineral density),osteoporosis model rats [2],0.198 ± 0.051 g/cm^2
same,BV/TV (bone volume fraction),osteoporosis model rats [2],16.863 ± 5.237 %
same,Tb. N (trabecular number),osteoporosis model rats [2],2.392 ± 0.809* 1/mm
same,Tb. Sp (trabecular separation/spacing),osteoporosis model rats [2],455.6 ± 182.901 μm
same,Ca (serum calcium),osteoporosis model rats [3]; [6],2.33 ± 0.13 mmol/L
same,P (serum phosphorus),osteoporosis model rats [3]; [6],3.1 ± 0.53 mmol/L
same,serum phosphorus content compared to the model group and the sham-operation group,"osteoporosis model rats [3]; positive control group, 8 weeks' administration, P<0.05",significantly higher
same,E2 (serum estradiol),osteoporosis model rats [4],32.45 ± 10.24 pg/mL
same,FSH,osteoporosis model rats [4],96.55 ± 11.84 ng/mL
same,Load (maximum load of femur),osteoporosis model rats [5],109.67 ± 26.78 N
